Reference: patent US20140045873A1, “NOVEL MICROBIOCIDES” (SYNGENTA PARTICIPATIONS AG, priority 2010, published 2014)
Where two headings read alike, the source gives them in different places.

Columns and labels:
[1] = test system: Gaeumannomyces graminis; assay: Gaeumannomyces graminis / liquid culture (take-all of cereals); format: cell-based; conditions: read-out: control of Gaeumannomyces graminis (inhibition of growth, photometric)
[2] = test system: Pyrenophora teres; conditions: in Hordeum vulgare, foliar, read-out: control of Pyrenophora teres (disease control compared to untreated)
[3] = test system: Monographella nivalis (Microdochium nivale); assay: Monographella nivalis (Microdochium nivale) / liquid culture (foot rot cereals); format: cell-based; conditions: PDB, 24° C., 4-5 days after application, read-out: control of Monographella nivalis (inhibition of growth, photometric)
[4] = test system: Mycosphaerella graminicola (Septoria tritici); assay: Mycosphaerella graminicola (Septoria tritici) / liquid culture (Septoria blotch); format: cell-based; conditions: Zymoseptoria tritici, read-out: control of Mycosphaerella graminicola (inhibition of growth, photometric)
[5] = test system: Botryotinia fuckeliana (Botrytis cinerea); assay: Botryotinia fuckeliana (Botrytis cinerea) / liquid culture (gray mould); format: cell-based; conditions: Vogels broth, 24° C., 3-4 days after application, read-out: control of Botryotinia fuckeliana (inhibition of growth, photometric)
Source text: Botryotinia Fuckeliana (Botrytis cinerea)/Liquid Culture (Gray Mould): Conidia of the fungus from cryogenic storage were directly mixed into nutrient broth (Vogels broth). […].45

[6] = test system: Puccinia recondita f. sp. tritici; conditions: in Triticum aestivum, foliar, read-out: control of Puccinia recondita f. sp. tritici (percent disease control compared to untreated)
[7] = test system: Phaeosphaeria nodorum (Septoria nodorum); conditions: Parastagonospora nodorum, in Triticum aestivum, foliar, read-out: control of Phaeosphaeria nodorum (percent disease control compared to untreated)
[8] = test system: Thanatephorus cucumeris (Rhizoctonia solani); conditions: read-out: control of Thanatephorus cucumeris (inhibition of growth, photometric)
[9] = test system: Mycosphaerella arachidis (Cercospora arachidicola); assay: Mycosphaerella arachidis (Cercospora arachidicola) / liquid culture (early leaf spot); format: cell-based; conditions: read-out: control of Mycosphaerella arachidis (inhibition of growth, photometric)
[10] = test system: Glomerella lagenarium (Colletotrichum lagenarium); assay: Glomerella lagenarium (Colletotrichum lagenarium) / liquid culture (anthracnose); format: cell-based; conditions: Colletotrichum orbiculare, read-out: control of Glomerella lagenarium (inhibition of growth, photometric)
[11] = test system: Puccinia recondita f. sp. tritici; conditions: in Triticum aestivum, foliar, read-out: control of Puccinia recondita f. sp. tritici (percent disease control compared to untreated); remark: listed apart in the source
[12] = 200 ppm, liquid culture, PDB, 24° C., 4-5 days after application
[13] = 200 ppm, liquid culture, PDB, 24° C., 3-4 days after application

CCc1cc(SC)c(C)c(-c2cccc(CCCO/N=C(\C)c3cccc(C)n3)n2)n1 [P.40]
≥ 80%: inhibition at 200 ppm [1, 12] | pest or weed control at 200 ppm [2] | inhibition at 200 ppm [3] | inhibition at 200 ppm [4, 12] | inhibition at 200 ppm [5] | pest or weed control at 200 ppm [6] | pest or weed control at 200 ppm [7] | inhibition at 200 ppm [8] | inhibition at 200 ppm [9, 12] | inhibition at 200 ppm [10, 13] | pest or weed control at 200 ppm [11]

C/C(=N\OCCCc1cccc(-c2ccncn2)n1)c1cccc(C)n1 [P.06]
≥ 80%: inhibition at 200 ppm [1, 12] | inhibition at 200 ppm [4, 12]

CCCOc1cc(C)nc(-c2cccc(CCCO/N=C(\C)c3cccc(C)n3)n2)c1 [P.26]
≥ 80%: inhibition at 200 ppm [1, 12] | pest or weed control at 200 ppm [2] | inhibition at 200 ppm [3] | inhibition at 200 ppm [4, 12] | inhibition at 200 ppm [5] | pest or weed control at 200 ppm [6] | pest or weed control at 200 ppm [7] | inhibition at 200 ppm [8] | inhibition at 200 ppm [9, 12] | inhibition at 200 ppm [10, 13] | pest or weed control at 200 ppm [11]

C=CCOc1cc(CC)nc(-c2cccc(CCCO/N=C(\C)c3cccc(C)n3)n2)c1C [P.37]
≥ 80%: pest or weed control at 200 ppm [2] | inhibition at 200 ppm [4, 12] | inhibition at 200 ppm [5] | pest or weed control at 200 ppm [6] | pest or weed control at 200 ppm [7] | inhibition at 200 ppm [8] | inhibition at 200 ppm [9, 12] | inhibition at 200 ppm [10, 13] | pest or weed control at 200 ppm [11]

C/C(=N\OCCCc1cccc(-c2ncccn2)n1)c1cccc(C)n1 [P.04]
≥ 80%: inhibition at 200 ppm [5] | pest or weed control at 200 ppm [6] | pest or weed control at 200 ppm [7] | inhibition at 200 ppm [8] | inhibition at 200 ppm [9, 12] | pest or weed control at 200 ppm [11]

C/C(=N\OCCCc1cccc(-c2cc(O)cc(C)n2)n1)c1cccc(C)n1 [P.14, 1-(6-methyl-pyridin-2-yl)-ethanone-O-[3-(4′-hydroxy-6′-methyl-[2,2′]bipyridinyl-6-yl)-propyl]-oxime]
≥ 80%: inhibition at 200 ppm [1, 12] | inhibition at 200 ppm [4, 12] | inhibition at 200 ppm [9, 12]

C/C(=N\OCCCc1cccc(-c2ccnc(C)n2)n1)c1cccc(C)n1 [P.03]
≥ 80%: inhibition at 200 ppm [1, 12] | pest or weed control at 200 ppm [2] | inhibition at 200 ppm [4, 12] | inhibition at 200 ppm [5] | pest or weed control at 200 ppm [7] | inhibition at 200 ppm [8] | inhibition at 200 ppm [9, 12] | pest or weed control at 200 ppm [11]

CCOc1cc(CC)nc(-c2cccc(CCCO/N=C(\C)c3cccc(C)n3)n2)c1C [P.34]
≥ 80%: pest or weed control at 200 ppm [2] | inhibition at 200 ppm [4, 12] | inhibition at 200 ppm [5] | pest or weed control at 200 ppm [6] | pest or weed control at 200 ppm [7] | inhibition at 200 ppm [8] | inhibition at 200 ppm [9, 12] | pest or weed control at 200 ppm [11]

CCc1cc(OC(C)C)c(C)c(-c2cccc(CCCO/N=C(\C)c3cccc(C)n3)n2)n1 [P.36]
≥ 80%: pest or weed control at 200 ppm [2] | inhibition at 200 ppm [4, 12] | inhibition at 200 ppm [5] | pest or weed control at 200 ppm [6] | pest or weed control at 200 ppm [7] | inhibition at 200 ppm [8] | inhibition at 200 ppm [9, 12] | inhibition at 200 ppm [10, 13] | pest or weed control at 200 ppm [11]

CC(=O)c1ccc(-c2cccc(CCCO/N=C(\C)c3cccc(C)n3)n2)nc1C [P.20]
≥ 80%: inhibition at 200 ppm [1, 12] | pest or weed control at 200 ppm [2] | pest or weed control at 200 ppm [7] | inhibition at 200 ppm [9, 12]

C#CCOc1cc(C)nc(-c2cccc(CCCO/N=C(\C)c3cccc(C)n3)n2)c1 [P.24]
≥ 80%: inhibition at 200 ppm [1, 12] | pest or weed control at 200 ppm [2] | inhibition at 200 ppm [3] | inhibition at 200 ppm [4, 12] | inhibition at 200 ppm [5] | pest or weed control at 200 ppm [6] | pest or weed control at 200 ppm [7] | inhibition at 200 ppm [8] | inhibition at 200 ppm [9, 12] | pest or weed control at 200 ppm [11]

C/C(=N\OCCCc1cccc(-c2ccnc(-c3ccccc3)n2)n1)c1cccc(C)n1 [P.08]
≥ 80%: inhibition at 200 ppm [1, 12] | inhibition at 200 ppm [4, 12] | inhibition at 200 ppm [5] | inhibition at 200 ppm [9, 12]

CSc1nccc(-c2cccc(CCCO/N=C(\C)c3cccc(C)n3)n2)n1 [P.09]
≥ 80%: inhibition at 200 ppm [1, 12] | pest or weed control at 200 ppm [2] | inhibition at 200 ppm [4, 12] | inhibition at 200 ppm [5] | pest or weed control at 200 ppm [7] | inhibition at 200 ppm [9, 12] | pest or weed control at 200 ppm [11]

C/C(=N\OCCCc1cccc(-c2ccccn2)n1)c1cccc(C)n1 [P.01]
≥ 80%: pest or weed control at 200 ppm [2] | inhibition at 200 ppm [3] | inhibition at 200 ppm [5] | pest or weed control at 200 ppm [6] | pest or weed control at 200 ppm [7] | inhibition at 200 ppm [8] | inhibition at 200 ppm [9, 12] | inhibition at 200 ppm [10, 13] | pest or weed control at 200 ppm [11]

CCCOc1cc(CC)nc(-c2cccc(CCCO/N=C(\C)c3cccc(C)n3)n2)c1C [P.35]
≥ 80%: pest or weed control at 200 ppm [2] | inhibition at 200 ppm [4, 12] | inhibition at 200 ppm [5] | pest or weed control at 200 ppm [6] | pest or weed control at 200 ppm [7] | inhibition at 200 ppm [8] | inhibition at 200 ppm [9, 12] | inhibition at 200 ppm [10, 13] | pest or weed control at 200 ppm [11]

C#CCOc1cc(CC)nc(-c2cccc(CCCO/N=C(\C)c3cccc(C)n3)n2)c1C [P.38]
≥ 80%: pest or weed control at 200 ppm [2] | inhibition at 200 ppm [4, 12] | inhibition at 200 ppm [5] | pest or weed control at 200 ppm [6] | pest or weed control at 200 ppm [7] | inhibition at 200 ppm [8] | inhibition at 200 ppm [9, 12] | inhibition at 200 ppm [10, 13] | pest or weed control at 200 ppm [11]

CCON=C(C)c1ccc(-c2cccc(CCCO/N=C(\C)c3cccc(C)n3)n2)nc1C [P.23]
≥ 80%: inhibition at 200 ppm [1, 12] | pest or weed control at 200 ppm [2] | inhibition at 200 ppm [4, 12] | inhibition at 200 ppm [5] | pest or weed control at 200 ppm [6] | pest or weed control at 200 ppm [7] | inhibition at 200 ppm [9, 12] | inhibition at 200 ppm [10, 13] | pest or weed control at 200 ppm [11]

C/C(=N\OCCCc1cccc(-c2ccnc(Cc3ccccc3)n2)n1)c1cccc(C)n1 [P.10]
≥ 80%: inhibition at 200 ppm [1, 12] | pest or weed control at 200 ppm [2] | inhibition at 200 ppm [4, 12] | inhibition at 200 ppm [5] | inhibition at 200 ppm [9, 12]

CCc1cc(Cl)c(C)c(-c2cccc(CCCO/N=C(\C)c3cccc(C)n3)n2)n1 [P.39]
≥ 80%: inhibition at 200 ppm [3] | inhibition at 200 ppm [4, 12] | inhibition at 200 ppm [5] | pest or weed control at 200 ppm [7] | inhibition at 200 ppm [8] | inhibition at 200 ppm [9, 12] | inhibition at 200 ppm [10, 13]

C/C(=N\OCCCc1cccc(-c2nccc(C)n2)n1)c1cccc(C)n1 [P.02]
≥ 80%: inhibition at 200 ppm [1] | pest or weed control at 200 ppm [2] | inhibition at 200 ppm [4] | pest or weed control at 200 ppm [6] | pest or weed control at 200 ppm [7] | inhibition at 200 ppm [8] | inhibition at 200 ppm [9] | inhibition at 200 ppm [10] | pest or weed control at 200 ppm [11]

CCc1cc(Br)c(C)c(-c2cccc(CCCO/N=C(\C)c3cccc(C)n3)n2)n1 [P.41]
≥ 80%: inhibition at 200 ppm [3] | inhibition at 200 ppm [4, 12] | inhibition at 200 ppm [5] | pest or weed control at 200 ppm [7] | inhibition at 200 ppm [9, 12] | inhibition at 200 ppm [10, 13]

CCc1cc(OC)c(C)c(-c2cccc(CCCO/N=C(\C)c3cccc(C)n3)n2)n1 [P.33]
≥ 80%: pest or weed control at 200 ppm [2] | inhibition at 200 ppm [4, 12] | inhibition at 200 ppm [5] | pest or weed control at 200 ppm [6] | pest or weed control at 200 ppm [7] | inhibition at 200 ppm [8] | inhibition at 200 ppm [9, 12] | pest or weed control at 200 ppm [11]

C/C(=N\OCCCc1cccc(-c2ccnc(C3CC3)n2)n1)c1cccc(C)n1 [P.07]
≥ 80%: inhibition at 200 ppm [1, 12] | pest or weed control at 200 ppm [2] | inhibition at 200 ppm [3] | inhibition at 200 ppm [4, 12] | inhibition at 200 ppm [5] | pest or weed control at 200 ppm [7] | inhibition at 200 ppm [8] | inhibition at 200 ppm [9, 12] | inhibition at 200 ppm [10, 13]
